The EC50 is the concentration that produces a half-maximal response.

Assay [1] has as its system Wnt-responsive Sp5-Luc reporter in SW480 colon carcinoma cells. Description: Wnt activity screening assay (Sp5-Luc reporter). The class given is cell-based. The settings on record: Homo sapiens. An excerpt:
The screening assay for Wnt activity is described as follows. Reporter cell lines can be generated by stably transducing cancer cell lines (e.g., colon cancer) or primary cells (e.g., IEC-6 intestinal cells) with a lentiviral construct that includes a Wnt-responsive promoter driving expression of the firefly luciferase gene.
SW480 colon carcinoma cells were transduced with a lentiviral vector expressing luciferase with a human Sp5 promoter consisting of a sequence of eight TCF/LEF binding sites. […] These stably transduced SW480 cells were expanded in cell culture and used for all further screening activities. […] For Sp5-Luc reporter gene assays, the cells were plated at 4,000 cells/well in 384-well plates with a DMEM medium containing 1% fetal bovine serum, and 1% Penicillin-Streptomycin and incubated for 36 to 48 hours at 37° C. and 5% CO2. Following incubation, 15 μL of BriteLite Plus luminescence reagent (Perkin Elmer) was added to each well of the 384-well assay plates. The plates were placed on an orbital shaker for 2 min and then luminescence was quantified using the Envision (Perkin Elmer) plate reader.

A further assay concerns the target T1, CLK2 (Homo sapiens, UniProt P49760).
T1 construct: purchased Thermo Fisher (Life Technologies), Z'-LYTE Kinase Assay Kits
The assay can be described thus: CLK2 kinase activity assay (Z-lyte, Ser/Thr 6 peptide). The class given is biochemical. As for the experimental part:
All reactions were performed in duplicate.

In assay [2] the test system is SW480 colorectal cancer cells. The assay can be described thus: Gene expression qRT-PCR in SW480 cells. It counts as cell-based. As to conditions: Homo sapiens, SW480, 3 μM, 24 hours, relative to DMSO. How it is done:
SW480 colorectal cancer cells were plated at 1×10^4 cells per well into 96-well plates (Olympus). Compounds were diluted in cell culture media and added to the cells at a final concentration of 3 μM. Cells were treated with vehicle (DMSO) and compounds for 24 hours. N=3 biological replicates per conditions.
Following treatment, cells were lysed, and cDNA was generated using the Fastlane Cell cDNA Kit (Qiagen).
384-well PCR plates with pre-spotted primers for CLK1, CLK2, CLK3, DVL2, LRP5, SRSF1, SRSF3, SRSF4, SRSF5, TCF7, TCF7L2 were ordered from Bio-Rad. The generated cDNA, along with a SYBR Green qRT-PCR master mix (SsoAdvanced™ Universal SYBR® Green Supermix, Bio-Rad) was added to the PCR plates.
qRT-PCR was performed on the plates using a CFX384 Touch™ Real-Time PCR Detection System (Bio-Rad) with the manufacturer's recommended thermal cycling conditions.
Data from the qRT-PCR assay was normalized to the GAPDH and HPRT1 housekeeping genes and set gene expression fold change was set relative to vehicle-treated cells using the ΔΔCt analysis method.
A general note: Quantitative PCR measures a nucleic acid by following its amplification.

The target in the next assay is CLK3 (Homo sapiens, UniProt P49761). The assay can be described thus: CLK3 kinase activity assay (Z-lyte, Ser/Thr 18 peptide).
CLK3, sequence (P49761 whole entry): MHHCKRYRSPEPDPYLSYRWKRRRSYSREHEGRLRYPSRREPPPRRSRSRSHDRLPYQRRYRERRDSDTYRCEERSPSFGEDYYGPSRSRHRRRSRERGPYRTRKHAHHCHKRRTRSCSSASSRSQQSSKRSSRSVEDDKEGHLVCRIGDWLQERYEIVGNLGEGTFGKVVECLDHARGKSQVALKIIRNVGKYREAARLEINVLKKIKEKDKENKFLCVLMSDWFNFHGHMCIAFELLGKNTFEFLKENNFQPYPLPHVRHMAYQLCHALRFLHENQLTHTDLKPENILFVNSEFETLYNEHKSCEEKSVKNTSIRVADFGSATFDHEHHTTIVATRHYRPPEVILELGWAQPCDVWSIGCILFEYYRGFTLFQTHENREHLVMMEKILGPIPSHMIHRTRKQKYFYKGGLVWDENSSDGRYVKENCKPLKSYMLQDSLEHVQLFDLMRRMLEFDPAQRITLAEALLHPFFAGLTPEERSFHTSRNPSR
The mark [3] stands for this setting: SW480 Sp5-Luc reporter, 36 to 48 hours, read-out: EC50.
Setting [4] is: recombinant CLK2 kinase, ATP 60 μM, read-out: EC50.
[5] abbreviates: read-out: gene expression fold change CLK1.
The mark [6] stands for this setting: read-out: gene expression fold change CLK2.
[7] abbreviates: read-out: gene expression fold change CLK3.
[8] abbreviates: read-out: gene expression fold change DVL2.
Where [9] appears, read: read-out: gene expression fold change LRP5.
The mark [10] stands for this setting: read-out: gene expression fold change SRSF1.
Setting [11] is: read-out: gene expression fold change SRSF3.
The mark [12] stands for this setting: read-out: gene expression fold change SRSF4.
Setting [13] is: read-out: gene expression fold change SRSF5.
Where [14] appears, read: read-out: gene expression fold change TCF7.
Where [15] appears, read: read-out: gene expression fold change TCF7L2.

Where two headings read alike, the source gives them in different places.

T1 sequence (P49760 whole entry): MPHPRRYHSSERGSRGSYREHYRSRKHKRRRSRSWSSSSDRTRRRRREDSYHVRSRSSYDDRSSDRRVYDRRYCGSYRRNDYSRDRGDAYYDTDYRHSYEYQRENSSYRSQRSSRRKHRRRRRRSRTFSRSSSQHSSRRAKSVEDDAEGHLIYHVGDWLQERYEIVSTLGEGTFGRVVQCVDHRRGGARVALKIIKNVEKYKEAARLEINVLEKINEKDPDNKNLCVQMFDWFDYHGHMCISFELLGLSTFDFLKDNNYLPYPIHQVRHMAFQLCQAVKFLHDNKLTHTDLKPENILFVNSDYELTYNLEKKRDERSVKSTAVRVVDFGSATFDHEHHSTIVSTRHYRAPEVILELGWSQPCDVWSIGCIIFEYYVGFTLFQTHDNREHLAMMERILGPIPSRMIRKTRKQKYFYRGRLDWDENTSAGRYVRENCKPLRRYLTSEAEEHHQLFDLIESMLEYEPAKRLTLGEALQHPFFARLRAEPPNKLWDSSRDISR

On to `CN1CCC(C(=O)Nc2c[nH]nc2-c2nc3c(-c4cccc(F)c4)cccc3[nH]2)CC1` [Compound 1], for which the EC50 in assay [1] (setting [3]) was found to be 39 nM; on CLK2 (setting [4]) it was 1 nM; at CLK3, 10 nM. In addition, the fold induction at 3 µM in assay [2] (setting [5]) came out at 0.02; in assay [2] (setting [6]), 0.02; in assay [2] (setting [7]) it was 0.01; in assay [2] (setting [8]), 0.14; in assay [2] (setting [9]), 0.18; in assay [2] (setting [10]), 0.32. The fold induction at 3 µM in assay [2] (setting [11]) stood at 0.13; in assay [2] (setting [12]), 0.03; in assay [2] (setting [13]) it was 0.39; in assay [2] (setting [14]), 0.44; in assay [2] (setting [15]), 0.24.
As for `Cc1n[nH]c2ncc(-c3cncc(OC[C@@H](N)Cc4ccccc4)n3)cc12` [Compound 4], the EC50 in assay [1] (setting [3]) came to 525 nM; at CLK2 (setting [4]) it was 2 nM; on CLK3, 1280 nM. For the same compound, the fold induction at 3 µM in assay [2] (setting [5]) worked out at 0.43; in assay [2] (setting [6]) it was 0.35; in assay [2] (setting [7]), 0.74; in assay [2] (setting [8]), 0.11; in assay [2] (setting [9]) it was 0.06; in assay [2] (setting [10]), 0.25. Also, the fold induction at 3 µM in assay [2] (setting [11]) is 0.05; in assay [2] (setting [12]), 0.7; in assay [2] (setting [13]) it was 0.27; in assay [2] (setting [14]), 0.21; in assay [2] (setting [15]), 0.13.
In the case of `Cc1ncc(NC(=O)c2n[nH]c3ccc(-c4cnn(C5CCNCC5)c4)cc23)s1` [Compound 5], the EC50 in assay [1] (setting [3]) amounted to 257 nM; on CLK2 (setting [4]), 0.3 nM; on CLK3, 27 nM. Moreover, the fold induction at 3 µM in assay [2] (setting [5]) worked out at 0.15; in assay [2] (setting [6]) it was 0.12; in assay [2] (setting [7]), 0.55; in assay [2] (setting [8]), 0.37; in assay [2] (setting [9]), 0.43; in assay [2] (setting [10]) it was 1.52. Besides, the fold induction at 3 µM in assay [2] (setting [11]) was 0.46; in assay [2] (setting [12]), 0.27; in assay [2] (setting [13]), 0.6; in assay [2] (setting [14]) it was 0.3; in assay [2] (setting [15]), 0.24.
Take `CC(C)N1CCC(n2cc(C(=O)Nc3cc4cc(-c5cnn(C)c5)ccc4cn3)cn2)CC1` [Compound 11]: the values for the EC50 (in assay [1] (setting [3]); on CLK2 (setting [4]); at CLK3) were 13 nM, 1 nM and 5 nM, respectively. For the same compound, the fold induction at 3 µM was 0.02 in assay [2] (setting [5]); 0.04 in assay [2] (setting [6]); 0.09 in assay [2] (setting [7]); 0.11 in assay [2] (setting [8]); 0.09 in assay [2] (setting [9]); 0.74 in assay [2] (setting [10]). Besides, the fold induction at 3 µM in assay [2] (setting [11]) stood at 0.17; in assay [2] (setting [12]), 0.15; in assay [2] (setting [13]), 0.24; in assay [2] (setting [14]), 0.19; in assay [2] (setting [15]), 0.17.
Turning to `Nc1cncc(-c2ccc3cnc(NC(=O)c4ccc(OC5CCNCC5)cc4)cc3c2)c1` [Compound 20], the EC50 in assay [1] (setting [3]) came to 169 nM; on CLK2 (setting [4]), 1 nM; at CLK3 it was 19 nM. For the same compound, the fold induction at 3 µM is 0.07 in assay [2] (setting [5]); 0.08 in assay [2] (setting [6]); 0.35 in assay [2] (setting [7]); 0.42 in assay [2] (setting [8]); 0.37 in assay [2] (setting [9]); 1.56 in assay [2] (setting [10]). Moreover, the fold induction at 3 µM stood at 0.5 in assay [2] (setting [11]); 0.33 in assay [2] (setting [12]); 0.63 in assay [2] (setting [13]); 0.47 in assay [2] (setting [14]); 0.6 in assay [2] (setting [15]).
`O=C(Nc1cc2cc(-c3cncc(NC4CCNC[C@@H]4F)n3)ccc2cn1)C1CC1` (stereo partly drawn) [Compound 22]: the EC50 in assay [1] (setting [3]) was 14 nM; on CLK2 (setting [4]), 2 nM; on CLK3, 18 nM. Moreover, the fold induction at 3 µM in assay [2] (setting [5]) came out at 0.04; in assay [2] (setting [6]), 0.04; in assay [2] (setting [7]), 0.04; in assay [2] (setting [8]), 0.41; in assay [2] (setting [9]), 0.21; in assay [2] (setting [10]), 0.53. Further, the fold induction at 3 µM in assay [2] (setting [11]) turned out to be 0.18; in assay [2] (setting [12]), 0.04; in assay [2] (setting [13]), 0.36; in assay [2] (setting [14]), 0.75; in assay [2] (setting [15]), 0.68.
Consider `Cc1ccc([N+](=O)[O-])cc1S(=O)(=O)N(C)/N=C/c1cnc2ccc(Br)cn12` [Compound 26], for which the figures for the EC50 (in assay [1] (SW480); on CLK2; at CLK3) were 39 nM, 1 nM and 15 nM, respectively.
Consider `Cc1n[nH]c2ccc(-c3cncc(OC4CCNCC4(F)F)n3)cc12` (stereo not drawn) [Compound 28], for which the EC50 in assay [1] (setting [3]) turned out to be 369 nM; on CLK2 (setting [4]) it was 3 nM; on CLK3, 313 nM.
Regarding `Fc1cccc(-c2cncc3[nH]c(-c4n[nH]cc4/C=C/c4cccnc4)nc23)c1` [Compound 29], the EC50 in assay [1] (setting [3]) is 14 nM; on CLK2 (setting [4]) it was 5 nM; at CLK3, 62 nM.
As to `CN1CCC(Oc2ccc(NC(=O)c3n[nH]c4ccc(-c5cncc(N)c5)cc34)cc2)CC1` [Compound 32], the EC50 in assay [1] (setting [3]) worked out at 85 nM; on CLK2 (setting [4]), 1 nM; at CLK3 it was 13 nM.
For `CN(C)Cc1cncc(-c2ccc3[nH]nc(-c4nc5c(-c6cccc(F)c6)cncc5[nH]4)c3c2)c1` [Compound 38], in that order: 13 nM, 1 nM and 7 nM.
Consider `CC(C)CC(=O)Nc1cncc(-c2ccc3[nH]nc(-c4nc5c(-c6cc(F)cc(OCCN(C)C)c6)cncc5[nH]4)c3c2)c1` [Compound 39], for which the EC50 amounted to 199 nM in assay [1] (setting [3]), 4 nM on CLK2 (setting [4]) and 10 nM on CLK3.
As for `CCC(=O)Nc1cncc(-c2ccc3[nH]nc(-c4nc5c(-c6cccnc6)cncc5[nH]4)c3c2)c1` [Compound 40], the EC50 in assay [1] (setting [3]) was 13 nM; on CLK2 (setting [4]), 3 nM; at CLK3, 14 nM.
Turning to `CN(C)Cc1cncc(-c2ccc3[nH]nc(-c4nc5c(-c6cc(F)cc(CNS(C)(=O)=O)c6)ccnc5[nH]4)c3c2F)c1` [Compound 41], the values for the EC50 (in assay [1] (setting [3]); at CLK2 (setting [4]); at CLK3) were 773 nM, 2 nM and 18 nM, respectively.
For `c1cncc(-c2ccc3[nH]nc(-c4nc5ccncc5[nH]4)c3c2)c1` [Compound 43], in that order: 133 nM, 4 nM and 40 nM.
In the case of `NC1CN(c2cncc(-c3cc4c(-c5nc6c(-c7cccc(F)c7)cccc6[nH]5)n[nH]c4cn3)n2)C1` [Compound 44], the EC50 is 79 nM in assay [1] (setting [3]), 18 nM on CLK2 (setting [4]) and 108 nM at CLK3.
